Data published in patent US9475775B2, “Benzazepine dicarboxamide compounds” (Hoffmann-La Roche Inc., priority 2015, dated 2016).

Key:
human TLR8 = human TLR8 (Homo sapiens (Human), UniProt Q9NR97); assay: HEK-Blue human TLR8 cells, NF-κB SEAP reporter assay; assay type: cell-based; conditions: stimulation for 20 hours
Description: (§1) For TLR8 and TLR7 activity testing, HEK-Blue human TLR8 or TLR7 cells (Invivogen, San Diego, Calif., USA) are used, respectively. These cells are designed for studying the stimulation of human TLR8 or TLR7 by monitoring the activation of NF-κB. A SEAP (secreted embryonic alkaline phosphatase) reporter gene is placed under the control of the IFN-b minimal promoter fused to five NF-κB and AP-1-binding sites. Therefore the reporter expression is regulated by the NF-κB promoter upon stimulation of human TLR8 or TLR7 for 20 hours. The cell culture supernatant SEAP reporter activity was determined using Quanti Blue kit (Invivogen, San Diego, Ca, USA) at a wavelength of 640 nm, a detection medium that turns purple/blue in the presence of alkaline phosphatase. EC50 values were determined using Activity Base analysis (ID Business Solution, Limited).

human TLR7 = human TLR7 (Homo sapiens (Human), UniProt Q9NYK1); assay: HEK-Blue human TLR7 cells, NF-κB SEAP reporter assay; assay type: cell-based; conditions: stimulation for 20 hours
human TLR7, sequence (Q9NYK1 27-1049): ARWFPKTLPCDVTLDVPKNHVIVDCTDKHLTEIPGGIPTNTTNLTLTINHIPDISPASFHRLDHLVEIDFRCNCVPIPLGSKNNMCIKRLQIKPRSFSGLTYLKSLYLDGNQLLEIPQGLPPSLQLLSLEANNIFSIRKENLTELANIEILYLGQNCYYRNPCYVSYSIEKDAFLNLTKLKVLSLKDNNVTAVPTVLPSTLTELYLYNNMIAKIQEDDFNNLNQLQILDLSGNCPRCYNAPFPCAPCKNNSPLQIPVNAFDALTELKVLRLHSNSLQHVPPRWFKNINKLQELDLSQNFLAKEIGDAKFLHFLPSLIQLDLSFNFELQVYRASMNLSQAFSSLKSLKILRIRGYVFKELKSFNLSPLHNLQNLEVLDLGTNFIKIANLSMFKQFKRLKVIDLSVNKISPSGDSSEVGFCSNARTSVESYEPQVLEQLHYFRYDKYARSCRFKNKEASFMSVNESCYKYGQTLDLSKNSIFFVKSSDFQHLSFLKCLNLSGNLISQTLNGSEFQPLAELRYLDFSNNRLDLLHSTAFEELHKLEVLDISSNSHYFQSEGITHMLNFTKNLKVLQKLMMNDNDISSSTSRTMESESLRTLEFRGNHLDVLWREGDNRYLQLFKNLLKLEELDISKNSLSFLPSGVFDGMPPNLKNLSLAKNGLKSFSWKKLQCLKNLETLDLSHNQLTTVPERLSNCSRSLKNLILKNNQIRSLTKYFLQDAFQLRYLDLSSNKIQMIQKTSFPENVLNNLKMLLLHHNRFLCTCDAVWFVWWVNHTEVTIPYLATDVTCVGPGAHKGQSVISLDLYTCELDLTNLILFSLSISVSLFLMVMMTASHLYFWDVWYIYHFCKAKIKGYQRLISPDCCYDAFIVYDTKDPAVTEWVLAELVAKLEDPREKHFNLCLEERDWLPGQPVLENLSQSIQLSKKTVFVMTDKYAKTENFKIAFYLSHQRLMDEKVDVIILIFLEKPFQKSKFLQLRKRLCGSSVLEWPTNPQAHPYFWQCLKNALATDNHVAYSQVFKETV
Description: as §1

human TLR8, sequence (Q9NR97 27-1041): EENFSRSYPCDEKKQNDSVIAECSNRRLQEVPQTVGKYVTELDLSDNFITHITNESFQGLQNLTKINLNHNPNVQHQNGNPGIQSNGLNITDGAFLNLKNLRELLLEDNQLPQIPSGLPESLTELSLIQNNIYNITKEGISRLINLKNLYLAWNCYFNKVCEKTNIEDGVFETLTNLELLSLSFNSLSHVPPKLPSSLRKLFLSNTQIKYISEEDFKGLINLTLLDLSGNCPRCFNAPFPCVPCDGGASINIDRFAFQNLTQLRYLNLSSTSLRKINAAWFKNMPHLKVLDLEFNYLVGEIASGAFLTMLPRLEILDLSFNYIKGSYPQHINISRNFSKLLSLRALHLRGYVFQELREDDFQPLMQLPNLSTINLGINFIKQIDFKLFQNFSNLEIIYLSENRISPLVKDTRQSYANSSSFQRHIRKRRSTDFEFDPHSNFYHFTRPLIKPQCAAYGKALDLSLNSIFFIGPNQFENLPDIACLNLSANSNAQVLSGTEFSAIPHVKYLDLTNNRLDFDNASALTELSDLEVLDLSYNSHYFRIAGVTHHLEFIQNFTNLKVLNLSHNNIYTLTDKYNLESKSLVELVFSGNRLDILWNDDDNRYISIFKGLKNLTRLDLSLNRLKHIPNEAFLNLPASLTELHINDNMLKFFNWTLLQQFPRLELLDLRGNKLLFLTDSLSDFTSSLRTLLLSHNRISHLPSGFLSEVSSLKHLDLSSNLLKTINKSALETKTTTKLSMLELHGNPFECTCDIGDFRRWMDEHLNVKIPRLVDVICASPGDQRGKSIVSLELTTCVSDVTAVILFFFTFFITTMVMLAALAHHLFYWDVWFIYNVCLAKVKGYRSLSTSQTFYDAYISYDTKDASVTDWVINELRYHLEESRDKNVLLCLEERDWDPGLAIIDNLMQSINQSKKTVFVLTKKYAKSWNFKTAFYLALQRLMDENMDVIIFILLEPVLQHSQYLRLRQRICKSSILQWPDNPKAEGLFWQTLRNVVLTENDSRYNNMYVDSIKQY

In the case of `CCCN(CCC)C(=O)C1=Cc2ccc(C(=O)Nc3cncc(F)c3)cc2N=C(N)C1` [Example 20, 2-Amino-N8-(5-fluoro-3-pyridyl)-N4,N4-dipropyl-3H-1-benzazepine-4,8-dicarboxamide], the EC50 (human TLR8) is reported as 3 nM and the EC50 (human TLR7) is reported as 46000 nM.

For `CCCCN(CCO)C(=O)C1=Cc2ccc(C(=O)Nc3cccc(C)c3)cc2N=C(N)C1` [Example 65, 2-Amino-N4-butyl-N4-(2-hydroxyethyl)-N8-(m-tolyl)-3H-1-benzazepine-4,8-dicarboxamide], the EC50 (human TLR8) was 6 nM and the EC50 (human TLR7) was > 100000 nM.

`CCCN(CCC)C(=O)C1=Cc2ccc(C(=O)Nc3cncc(CCCCN)c3)cc2N=C(N)C1` [Example 76, 2-Amino-N8-[5-(4-aminobutyl)-3-pyridyl]-N4,N4-dipropyl-3H-1-benzazepine-4,8-dicarboxamide] was tested, and the EC50 (human TLR8) was 24 nM and the EC50 (human TLR7) was > 100000 nM.

With `CCCN(CCC)C(=O)C1=Cc2ccc(C(=O)Nc3cccc(CCCCN)c3)cc2N=C(N)C1` [Example 62] the EC50 (human TLR8) was 7 nM and the EC50 (human TLR7) was > 100000 nM.

In the case of `CCCN(CCC)C(=O)C1=Cc2ccc(C(=O)Nc3ccc(CCCCCN)cc3)cc2N=C(N)C1` [Example 58, 2-Amino-N8-[4-(5-aminopentyl)phenyl]-N4,N4-dipropyl-3H-1-benzazepine-4,8-dicarboxamide], the EC50 (human TLR8) is reported as 15 nM and the EC50 (human TLR7) is reported as > 100000 nM.

`CCCN(CCC)C(=O)C1=Cc2ccc(C(=O)Nc3cccc(S(C)(=O)=O)c3)cc2N=C(N)C1` [Example 8, 2-Amino-N8-(3-methylsulfonylphenyl)-N4,N4-dipropyl-3H-1-benzazepine-4,8-dicarboxamide] showed an EC50 (human TLR8) of 10 nM and an EC50 (human TLR7) of 44000 nM.

For `CCCN(CCC)C(=O)C1=Cc2ccc(C(=O)Nc3cncnc3)cc2N=C(N)C1` [Example 2, 2-Amino-N4,N4-dipropyl-N8-pyrimidin-5-yl-3H-1-benzazepine-4,8-dicarboxamide], the EC50 (human TLR8) was 1 nM and the EC50 (human TLR7) was > 100000 nM.

`CCCN(CCC)C(=O)C1=Cc2ccc(C(=O)Nc3ccncc3)cc2N=C(N)C1` [Example 3, 2-Amino-N4,N4-dipropyl-N8-(4-pyridyl)-3H-1-benzazepine-4,8-dicarboxamide] was tested, and the EC50 (human TLR8) was 13 nM and the EC50 (human TLR7) was 70100 nM.

For `CCCN(CCC)C(=O)C1=Cc2ccc(C(=O)Nc3ccnnc3)cc2N=C(N)C1` [Example 34, 2-Amino-N4,N4-dipropyl-N8-pyridazin-4-yl-3H-1-benzazepine-4,8-dicarboxamide], the EC50 (human TLR8) was 2 nM and the EC50 (human TLR7) was > 100000 nM.

For `CCCN(CCC)C(=O)C1=Cc2ccc(C(=O)Nc3ccc(CO)nc3)cc2N=C(N)C1` [Example 7, 2-Amino-N8-[6-(hydroxymethyl)-3-pyridyl]-N4,N4-dipropyl-3H-1-benzazepine-4,8-dicarboxamide], the EC50 (human TLR8) was 15 nM and the EC50 (human TLR7) was > 100000 nM.

For `CCCN(CC(C)C)C(=O)C1=Cc2ccc(C(=O)Nc3cccc(C)c3)cc2N=C(N)C1` [Example 55, 2-Amino-N4-isobutyl-N8-(m-tolyl)-N4-propyl-3H-1-benzazepine-4,8-dicarboxamide], the EC50 (human TLR8) was 2 nM and the EC50 (human TLR7) was > 100000 nM.

With `CCCN(CCC)C(=O)C1=Cc2ccc(C(=O)Nc3cccc(OC)c3)cc2N=C(N)C1` [Example 30, 2-Amino-N8-(3-methoxyphenyl)-N4,N4-dipropyl-3H-1-benzazepine-4,8-dicarboxamide] the EC50 (human TLR8) was 2 nM and the EC50 (human TLR7) was > 100000 nM.

For `CCCN(CCC)C(=O)C1=Cc2ccc(C(=O)Nc3cccc(C(F)(F)F)c3)cc2N=C(N)C1` [Example 31, 2-Amino-N4,N4-dipropyl-N8-[3-(trifluoromethyl)phenyl]-3H-1-benzazepine-4,8-dicarboxamide], the EC50 (human TLR8) was 5 nM and the EC50 (human TLR7) was > 100000 nM.

In the case of `CCCN(CCC)C(=O)C1=Cc2ccc(C(=O)Nc3ccc(OCC)nc3)cc2N=C(N)C1` [Example 35, 2-Amino-N8-(6-ethoxy-3-pyridyl)-N4,N4-dipropyl-3H-1-benzazepine-4,8-dicarboxamide], the EC50 (human TLR8) is reported as 1 nM and the EC50 (human TLR7) is reported as > 100000 nM.

In the case of `CCCN(CCC)C(=O)C1=Cc2ccc(C(=O)Nc3cncc(OCC)c3)cc2N=C(N)C1` [Example 44, 2-Amino-N8-(5-ethoxy-3-pyridyl)-N4,N4-dipropyl-3H-1-benzazepine-4,8-dicarboxamide], the EC50 (human TLR8) is reported as 1 nM and the EC50 (human TLR7) is reported as 12000 nM.

For `CCCN(CCC)C(=O)C1=Cc2ccc(C(=O)Nc3cncc(CNC(=O)OCc4ccccc4)c3)cc2N=C(N)C1` [Example 67, Benzyl N-[[5-[[2-amino-4-(dipropylcarbamoyl)-3H-1-benzazepine-8-carbonyl]amino]-3-pyridyl]methyl]carbamate], the EC50 (human TLR8) was 4 nM and the EC50 (human TLR7) was > 100000 nM.

For `C#CCN(CCC)C(=O)C1=Cc2ccc(C(=O)Nc3cccc(C)c3)cc2N=C(N)C1` [Example 41, 2-Amino-N8-(m-tolyl)-N4-propyl-N4-prop-2-ynyl-3H-1-benzazepine-4,8-dicarboxamide], the EC50 (human TLR8) was 6 nM and the EC50 (human TLR7) was > 100000 nM.

For `CCCN(CCC)C(=O)C1=Cc2ccc(C(=O)Nc3ccn(C)n3)cc2N=C(N)C1` [Example 37, 2-Amino-N8-(1-methylpyrazol-3-yl)-N4,N4-dipropyl-3H-1-benzazepine-4,8-dicarboxamide], the EC50 (human TLR8) was 23 nM and the EC50 (human TLR7) was 38000 nM.

`CCCN(CC1CC1)C(=O)C1=Cc2ccc(C(=O)Nc3cccc(C)c3)cc2N=C(N)C1` [Example 53, 2-Amino-N4-(cyclopropylmethyl)-N8-(m-tolyl)-N4-propyl-3H-1-benzazepine-4,8-dicarboxamide] was tested, and the EC50 (human TLR8) was 2 nM and the EC50 (human TLR7) was 20000 nM.

`CCCN(CCC)C(=O)C1=Cc2ccc(C(=O)Nc3cccc(CCCN)c3)cc2N=C(N)C1` [Example 59, 2-Amino-N8-[3-(3-aminopropyl)phenyl]-N4,N4-dipropyl-3H-1-benzazepine-4,8-dicarboxamide] was tested, and the EC50 (human TLR8) was 3 nM and the EC50 (human TLR7) was > 100000 nM.

Molecule `CCCN(CCC(F)(F)F)C(=O)C1=Cc2ccc(C(=O)Nc3cccc(C)c3)cc2N=C(N)C1` [Example 51, 2-Amino-N8-(m-tolyl)-N4-propyl-N4-(3,3,3-trifluoropropyl)-3H-1-benzazepine-4,8-dicarboxamide] has an EC50 (human TLR8) of 2 nM and an EC50 (human TLR7) of 22000 nM.

In the case of `CCCN(CCC)C(=O)C1=Cc2ccc(C(=O)Nc3ccc(CCCN)cc3)cc2N=C(N)C1` [Example 61, 2-Amino-N8-[4-(3-aminopropyl)phenyl]-N4,N4-dipropyl-3H-1-benzazepine-4,8-dicarboxamide], the EC50 (human TLR8) is reported as 5 nM and the EC50 (human TLR7) is reported as > 100000 nM.

In the case of `CCCN(CCC)C(=O)C1=Cc2ccc(C(=O)Nc3cncc(CN(C)C)c3)cc2N=C(N)C1` [Example 78, 2-Amino-N8-[5-[(dimethylamino)methyl]-3-pyridyl]-N4,N4-dipropyl-3H-1-benzazepine-4,8-dicarboxamide], the EC50 (human TLR8) is reported as 12 nM and the EC50 (human TLR7) is reported as > 100000 nM.

For `CCCN(CCC)C(=O)C1=Cc2ccc(C(=O)Nc3ccc(C)cc3)cc2N=C(N)C1` [Example 28, 2-Amino-N4,N4-dipropyl-N8-(p-tolyl)-3H-1-benzazepine-4,8-dicarboxamide], the EC50 (human TLR8) was 1 nM and the EC50 (human TLR7) was > 100000 nM.

`CCCN(CCC)C(=O)C1=Cc2ccc(C(=O)Nc3cncc(/C=C\CN)c3)cc2N=C(N)C1` [Example 52, 2-Amino-N8-[5-[(Z)-3-aminoprop-1-enyl]-3-pyridyl]-N4,N4-dipropyl-3H-1-benzazepine-4,8-dicarboxamide] was tested, and the EC50 (human TLR8) was 6 nM and the EC50 (human TLR7) was > 100000 nM.

With `CCCN(CCC)C(=O)C1=Cc2ccc(C(=O)Nc3cccc(OCCOCCN)c3)cc2N=C(N)C1` [Example 45, 2-Amino-N8-[3-[2-(2-aminoethoxy)ethoxy]phenyl]-N4,N4-dipropyl-3H-1-benzazepine-4,8-dicarboxamide] the EC50 (human TLR8) was 26 nM and the EC50 (human TLR7) was > 100000 nM.

`CCCN(CCC)C(=O)C1=Cc2ccc(C(=O)Nc3cccc(C)c3)cc2N=C(N)C1` [Example 14, 2-Amino-N8-(m-tolyl)-N4,N4-dipropyl-3H-1-benzazepine-4,8-dicarboxamide] was tested, and the EC50 (human TLR8) was 1 nM and the EC50 (human TLR7) was > 100000 nM.

`CCCN(CCC)C(=O)C1=Cc2ccc(C(=O)Nc3ccccc3C)cc2N=C(N)C1` [Example 27, 2-Amino-N8-(o-tolyl)-N4,N4-dipropyl-3H-1-benzazepine-4,8-dicarboxamide] was tested, and the EC50 (human TLR8) was 5 nM and the EC50 (human TLR7) was 28000 nM.

With `CCCN(CCC)C(=O)C1=Cc2ccc(C(=O)Nc3cncc(CCCCCN)c3)cc2N=C(N)C1` [Example 72, 2-Amino-N8-[5-(5-aminopentyl)-3-pyridyl]-N4,N4-dipropyl-3H-1-benzazepine-4,8-dicarboxamide] the EC50 (human TLR8) was 25 nM and the EC50 (human TLR7) was > 100000 nM.

`CCCN(CCC)C(=O)C1=Cc2ccc(C(=O)Nc3ccc(CN)nc3)cc2N=C(N)C1` [Example 5, 2-Amino-N8-[6-(aminomethyl)-3-pyridyl]-N4,N4-dipropyl-3H-1-benzazepine-4,8-dicarboxamide] was tested, and the EC50 (human TLR8) was 3 nM and the EC50 (human TLR7) was > 100000 nM.

Molecule `CCCN(CC1CC1)C(=O)C1=Cc2ccc(C(=O)Nc3cncc(OCC)c3)cc2N=C(N)C1` [Example 79, 2-Amino-N4-(cyclopropylmethyl)-N8-(5-ethoxy-3-pyridyl)-N4-propyl-3H-1-benzazepine-4,8-dicarboxamide] has an EC50 (human TLR8) of 2 nM and an EC50 (human TLR7) of 31000 nM.

With `CCCN(CCC)C(=O)C1=Cc2ccc(C(=O)Nc3cc(C)cc(CN)c3)cc2N=C(N)C1` [Example 43, 2-Amino-N8-[3-(aminomethyl)-5-methyl-phenyl]-N4,N4-dipropyl-3H-1-benzazepine-4,8-dicarboxamide] the EC50 (human TLR8) was 15 nM and the EC50 (human TLR7) was 61000 nM.

`CCCN(CCC)C(=O)C1=Cc2ccc(C(=O)Nc3cncc(CN)c3)cc2N=C(N)C1` [Example 33, 2-Amino-N8-[5-(aminomethyl)-3-pyridyl]-N4,N4-dipropyl-3H-1-benzazepine-4,8-dicarboxamide] was tested, and the EC50 (human TLR8) was 2 nM and the EC50 (human TLR7) was > 100000 nM.

In the case of `CCCN(CCC)C(=O)C1=Cc2ccc(C(=O)Nc3cc(Cl)cc(CCN)c3)cc2N=C(N)C1` [Example 64, 2-Amino-N8-[3-(2-aminoethyl)-5-chloro-phenyl]-N4,N4-dipropyl-3H-1-benzazepine-4,8-dicarboxamide], the EC50 (human TLR8) is reported as 29 nM and the EC50 (human TLR7) is reported as > 100000 nM.
